From patent US20160221974A1, “SODIUM CHANNEL MODULATORS FOR THE TREATMENT OF PAIN AND DIABETES” (CHROMOCELL CORPORATION, priority 2013, published 2016) come the findings set out here.

For the first test, the target named is T1, hNaV1.7 (Homo sapiens, UniProt Q15858).
T1 construct: expressed in transfected cells
T1 sequence (Q15858 whole entry): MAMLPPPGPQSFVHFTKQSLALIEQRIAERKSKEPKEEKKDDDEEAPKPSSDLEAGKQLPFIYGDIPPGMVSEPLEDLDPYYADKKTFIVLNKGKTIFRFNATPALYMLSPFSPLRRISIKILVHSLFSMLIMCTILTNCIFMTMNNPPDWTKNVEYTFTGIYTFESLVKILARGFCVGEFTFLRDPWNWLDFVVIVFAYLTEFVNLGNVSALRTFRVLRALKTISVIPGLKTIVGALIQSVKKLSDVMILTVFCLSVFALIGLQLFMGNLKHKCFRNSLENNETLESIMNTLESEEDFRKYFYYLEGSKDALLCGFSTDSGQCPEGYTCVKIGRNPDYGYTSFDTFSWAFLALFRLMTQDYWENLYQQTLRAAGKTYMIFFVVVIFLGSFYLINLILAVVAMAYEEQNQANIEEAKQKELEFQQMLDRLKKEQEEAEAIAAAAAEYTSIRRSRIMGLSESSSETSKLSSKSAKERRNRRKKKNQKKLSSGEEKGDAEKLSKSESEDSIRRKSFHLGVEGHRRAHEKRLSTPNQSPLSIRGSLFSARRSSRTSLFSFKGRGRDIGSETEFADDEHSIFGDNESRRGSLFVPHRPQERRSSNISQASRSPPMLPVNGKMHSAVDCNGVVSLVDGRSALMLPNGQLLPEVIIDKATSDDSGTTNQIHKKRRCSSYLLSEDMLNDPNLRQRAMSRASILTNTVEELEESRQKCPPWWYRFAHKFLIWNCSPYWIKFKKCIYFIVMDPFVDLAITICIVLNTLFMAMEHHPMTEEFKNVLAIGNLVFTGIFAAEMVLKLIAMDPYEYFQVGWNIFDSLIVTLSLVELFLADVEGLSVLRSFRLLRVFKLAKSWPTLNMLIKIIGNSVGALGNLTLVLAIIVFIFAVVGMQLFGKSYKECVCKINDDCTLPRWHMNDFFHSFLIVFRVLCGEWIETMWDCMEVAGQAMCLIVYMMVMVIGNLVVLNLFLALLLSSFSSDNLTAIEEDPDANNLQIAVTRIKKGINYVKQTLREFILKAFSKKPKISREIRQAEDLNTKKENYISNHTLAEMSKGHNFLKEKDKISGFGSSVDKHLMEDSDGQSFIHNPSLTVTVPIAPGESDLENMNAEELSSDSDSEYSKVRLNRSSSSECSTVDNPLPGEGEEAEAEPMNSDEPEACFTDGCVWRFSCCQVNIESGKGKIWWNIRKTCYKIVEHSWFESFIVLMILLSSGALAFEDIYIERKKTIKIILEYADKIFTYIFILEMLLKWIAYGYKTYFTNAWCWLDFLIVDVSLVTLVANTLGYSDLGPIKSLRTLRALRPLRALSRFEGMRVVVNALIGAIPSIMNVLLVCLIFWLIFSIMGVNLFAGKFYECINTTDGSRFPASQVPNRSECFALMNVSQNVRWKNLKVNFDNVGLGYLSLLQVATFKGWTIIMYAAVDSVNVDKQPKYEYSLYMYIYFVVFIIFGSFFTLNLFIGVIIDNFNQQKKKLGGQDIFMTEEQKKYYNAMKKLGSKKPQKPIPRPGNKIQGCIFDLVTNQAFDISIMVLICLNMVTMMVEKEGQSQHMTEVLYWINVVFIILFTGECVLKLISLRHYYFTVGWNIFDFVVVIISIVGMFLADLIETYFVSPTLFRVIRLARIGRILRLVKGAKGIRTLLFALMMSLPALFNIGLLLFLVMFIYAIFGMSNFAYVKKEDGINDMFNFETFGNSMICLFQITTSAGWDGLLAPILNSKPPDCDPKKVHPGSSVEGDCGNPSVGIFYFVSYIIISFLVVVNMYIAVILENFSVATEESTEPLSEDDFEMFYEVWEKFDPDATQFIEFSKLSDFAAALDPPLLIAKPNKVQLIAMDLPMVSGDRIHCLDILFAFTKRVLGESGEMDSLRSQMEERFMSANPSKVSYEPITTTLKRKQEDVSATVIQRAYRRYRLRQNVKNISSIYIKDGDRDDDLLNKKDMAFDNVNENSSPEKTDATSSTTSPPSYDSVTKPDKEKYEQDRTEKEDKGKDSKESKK
T1 sequence (Q07699 19-218 partner): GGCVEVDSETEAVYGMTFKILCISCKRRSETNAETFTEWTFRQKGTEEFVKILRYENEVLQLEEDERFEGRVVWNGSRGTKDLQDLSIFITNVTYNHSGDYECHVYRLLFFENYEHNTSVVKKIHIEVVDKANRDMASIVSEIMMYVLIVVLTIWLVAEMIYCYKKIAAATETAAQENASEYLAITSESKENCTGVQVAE
T1 sequence (O60939 30-215 partner): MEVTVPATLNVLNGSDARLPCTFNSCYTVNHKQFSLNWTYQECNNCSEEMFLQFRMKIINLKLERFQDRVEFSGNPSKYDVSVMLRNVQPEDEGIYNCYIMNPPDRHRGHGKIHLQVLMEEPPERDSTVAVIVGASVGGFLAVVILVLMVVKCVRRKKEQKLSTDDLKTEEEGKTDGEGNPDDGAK
Put plainly: FDSS Membrane Potential In-Vitro Assay. Type of test: cell-based. To be noted: stimulation with veratridine and scorpion venom, read-out: NaV1.7 IC50.
`O=C(O)CNC(=O)c1cccc(-c2cc(Cl)ccc2Oc2cc(F)c(S(=O)(=O)Nc3ncns3)cc2Cl)n1` [Compound 7, 2-(6-(2-(4-(N-(1,2,4-thiadiazol-5-yl)sulfamoyl)-2-chloro-5-fluorophenoxy)-5-chlorophenyl)picolinamido)acetic acid]: the 50% inhibitory concentration (IC50) (commonly the concentration needed to halve the response being measured) was 130 to 1000 nM.

Turning to `CCOC(=O)CNCCCc1cc(Cl)ccc1Oc1cc(F)c(S(=O)(=O)Nc2nccs2)cc1Cl` [Compound 35, ethyl 2-((3-(5-chloro-2-(2-chloro-5-fluoro-4-(N-(thiazol-2-yl)sulfamoyl)phenoxy)phenyl)propyl)amino)acetate], the IC50 fell in the range of 100 to 500 nM.

As to `O=S(=O)(Nc1nccs1)c1cc(Cl)c(Oc2ccc(Cl)cc2CCCNc2cn[nH]c2)cc1F` [Compound 42, 4-(2-(3-((1H-pyrazol-4-yl)amino)propyl)-4-chlorophenoxy)-5-chloro-2-fluoro-N-(thiazol-2-yl)benzenesulfonamide], the IC50 lay within 1000 to 20000 nM.

Turning to `O=C(O)CCNCCCc1cc(Cl)ccc1Oc1cc(F)c(S(=O)(=O)Nc2nccs2)cc1F` [Compound 43, 3-((3-(5-chloro-2-(2,5-difluoro-4-(N-(thiazol-2-yl)sulfamoyl)phenoxy)phenyl)propyl)amino)propanoic acid], the IC50 fell in the range of 100 to 500 nM.

With `O=S(=O)(Nc1cscn1)c1cc(Cl)c(Oc2ccc(Cl)cc2CCCNc2cc[nH]n2)cc1F` [Compound 45, 4-(2-(3-((1H-pyrazol-3-yl)amino)propyl)-4-chlorophenoxy)-5-chloro-2-fluoro-N-(thiazol-4-yl)benzenesulfonamide], the IC50 lay within 1000 to 20000 nM.

Take `CNC(=O)CNCCCc1cc(Cl)ccc1Oc1cc(F)c(S(=O)(=O)Nc2cscn2)cc1Cl` [Compound 46, 2-((3-(5-chloro-2-(2-chloro-5-fluoro-4-(N-(thiazol-4-yl)sulfamoyl)phenoxy)phenyl)propyl)amino)-N-methylacetamide]: the IC50 is 100 to 500 nM.

Regarding `O=S(=O)(Nc1cscn1)c1cc(Cl)c(Oc2ccc(Cl)cc2CCCN2CCc3[nH]ncc3C2)cc1F` [Compound 48, 5-chloro-4-(4-chloro-2-(3-(6,7-dihydro-1H-pyrazolo[4,3-c]pyridin-5(4H)-yl)propyl)phenoxy)-2-fluoro-N-(thiazol-4-yl)benzenesulfonamide], the IC50 was in the range of 500 to 1000 nM.

For `CC(C)CCOC(=O)CNCCCc1cc(Cl)ccc1Oc1cc(F)c(S(=O)(=O)Nc2nccs2)cc1Cl` [Compound 50, isopentyl 2-((3-(5-chloro-2-(2-chloro-5-fluoro-4-(N-(thiazol-2-yl)sulfamoyl)phenoxy)phenyl)propyl)amino)acetate], the IC50 fell in the range of 500 to 1000 nM.

As for `CC(C)OC(=O)CNCCCc1cc(Cl)ccc1Oc1cc(F)c(S(=O)(=O)Nc2nccs2)cc1Cl` [Compound 51, isopropyl 2-((3-(5-chloro-2-(2-chloro-5-fluoro-4-(N-(thiazol-2-yl)sulfamoyl)phenoxy)phenyl)propyl)amino)acetate], the IC50 fell in the range of 500 to 1000 nM.

In the case of `O=S(=O)(Nc1cscn1)c1cc(Cl)c(Oc2ccc(Cl)cc2CCCN2CCn3ccnc3C2)cc1F` [Compound 55, 5-chloro-4-(4-chloro-2-(3-(5,6-dihydroimidazo[1,2-a]pyrazin-7(8H)-yl)propyl)phenoxy)-2-fluoro-N-(thiazol-4-yl)benzenesulfonamide], the IC50 lay in the range of 100 to 500 nM.

On to `O=S(=O)(Nc1nccs1)c1cc(Cl)c(Oc2ccc(Cl)cc2-c2cnn3c2NCCC3)cc1F` [Compound 57, 5-chloro-4-(4-chloro-2-(4,5,6,7-tetrahydropyrazolo[1,5-a]pyrimidin-3-yl)phenoxy)-2-fluoro-N-(thiazol-2-yl)benzenesulfonamide], for which the IC50 is 100 to 500 nM.

Consider `CS(=O)(=O)CCNCCCc1cc(Cl)ccc1Oc1cc(F)c(S(=O)(=O)Nc2nccs2)cc1Cl` [Compound 59, 5-chloro-4-(4-chloro-2-(3-((2-(methylsulfonyl)ethyl)amino)propyl)phenoxy)-2-fluoro-N-(thiazol-2-yl)benzenesulfonamide], for which the IC50 was in the range of 100 to 500 nM.

Take `CCOC(=O)CN(C)CCCc1cc(Cl)ccc1Oc1cc(F)c(S(=O)(=O)Nc2nccs2)cc1Cl` [Compound 68, ethyl 2-((3-(5-chloro-2-(2-chloro-5-fluoro-4-(N-(thiazol-2-yl)sulfamoyl)phenoxy)phenyl)propyl)(methyl)amino)acetate]: the IC50 lay within 500 to 1000 nM.

The next test deals with T2, NaV1.7 (Homo sapiens, UniProt Q15858).
T2 construct: expressed in transfected cells
T2 sequence (Q15858 whole entry): as the sequence (Q15858 whole entry) above
T2 sequence (Q07699 19-218 partner): as the sequence (Q07699 19-218 partner) above
T2 sequence (O60939 30-215 partner): as the sequence (O60939 30-215 partner) above
The test can be described thus: Patchliner Electrophysiological In-Vitro Assay (NaV1.7). To be noted: Patchliner patch clamp, HEK293, holding at V1/2. Type of test: cell-based. How it is done: In vitro assays were performed in recombinant cell line that stably express a heterotrimeric protein of interest from an introduced nucleic acid encoding the alpha subunit (hNav1.7, SCN9A), the beta subunit (SCNB1) and the beta subunit (SCNB2). The cell line was engineered using Human Embryonic Kidney 293 cells as host background. Additional cell lines stably expressing recombinant Nav1.7 or Nav1.5 alpha subunit alone or in combination with various beta subunits can also be used in in-vitro assays.
The recording of sodium current from stable HEK293 cell lines expressing NaV1.7 or NaV1.5 was done on a Patchliner® instrument, Nanion Technologies. The Patchliner® is a fully automated bench-top patch clamp platform and can record simultaneously from up to eight single cells with GΩ seals.
For patch-clamp experiments, cells were grown under standard culturing conditions in Dulbecco's Modified Eagles medium supplemented with 10% fetal bovine serum, glutamine and HEPES. Cells were harvested and kept in suspension for up to 4 hours with no significant change in quality or ability to patch. Whole cell patch clamp recordings were conducted according to Nanion's standard procedure for the Patchliner®. Experiments were conducted at room temperature.
Voltage protocols were designed to establish: 1) peak current amplitude (Imax), 2) test potential (Vmax) and 3) half-inactivation potential (V1/2) for each of the eight individual cells. To determine V1/2, a standard steady-state inactivation protocol was executed using a series of fifteen 500 ms depolarizing pre-pulses in 10 mV increments (starting at −130 mV) and immediately followed by a 10 ms test pulse to Vmax. To estimate test compound affinity to the inactivated state of sodium channel (Ki), the holding potential for each cell was set automatically to the V1/2 calculated from a steady-state inactivation data. The current was activated with the following voltage protocol: holding at V1/2 for 2-5 seconds, return to the −120 mV for 5-10 ms to relieve fast inactivation, stepping to test potential (Vmax) for 10-20 ms. This voltage protocol was repeated every 10 seconds to establish the baseline with 2-3 buffer additions followed by the test compound addition. The dose-dependent inhibition was analyzed using Nanion's Data Analysis Package.
On the technique in general: The patch-clamp technique gives a direct electrical read-out from membranes.
For the compound `COC(=O)CNCCCc1cc(Cl)ccc1Oc1cc(F)c(S(=O)(=O)Nc2cscn2)cc1Cl` [Compound 24, methyl 2-((3-(5-chloro-2-(2-chloro-5-fluoro-4-(N-(thiazol-4-yl)sulfamoyl)phenoxy)phenyl)propyl)amino)acetate], the IC50 is < 100 nM.

For the compound `O=C(O)CCNCCCc1cc(F)ccc1Oc1cc(F)c(S(=O)(=O)Nc2cscn2)cc1Cl` [Compound 25, 3-((3-(2-(2-chloro-5-fluoro-4-(N-(thiazol-4-yl)sulfamoyl)phenoxy)-5-fluorophenyl)propyl)amino)propanoic acid], the IC50 is 100 to 1000 nM.

For the compound `O=C(O)CCNCCCc1cc(Cl)ccc1Oc1cc(F)c(S(=O)(=O)Nc2nccs2)cc1Cl` [Compound 29, 3-((3-(5-chloro-2-(2-chloro-5-fluoro-4-(N-(thiazol-2-yl)sulfamoyl)phenoxy)phenyl)propyl)amino)propanoic acid], the IC50 is < 100 nM.

In the case of `O=S(=O)(Nc1cscn1)c1cc(Cl)c(Oc2ccc(Cl)cc2-c2cnn3c2NCCC3)cc1F` [Compound 33, 5-chloro-4-(4-chloro-2-(4,5,6,7-tetrahydropyrazolo[1,5-a]pyrimidin-3-yl)phenoxy)-2-fluoro-N-(thiazol-4-yl)benzenesulfonamide], the IC50 lay in the range of 100 to 1000 nM.

`CCCCCOC(=O)N(CCCc1cc(Cl)ccc1Oc1cc(F)c(S(=O)(=O)Nc2nccs2)cc1Cl)CC(=O)O` [Compound 53, 2-((3-(5-chloro-2-(2-chloro-5-fluoro-4-(N-(thiazol-2-yl)sulfamoyl)phenoxy)phenyl)propyl)((pentyloxy)carbonyl)amino)acetic acid]: the IC50 was < 100 nM.

As to `NC(=O)CNCCCc1ccccc1Oc1cc(F)c(S(=O)(=O)Nc2cscn2)cc1Cl` [Compound 60, 2-((3-(2-(2-chloro-5-fluoro-4-(N-(thiazol-4-yl)sulfamoyl)phenoxy)phenyl)propyl)amino)acetamide], the 50% inhibitory concentration (IC50) was < 100 nM.

`C#CCN(CCCc1cc(Cl)ccc1Oc1cc(F)c(S(=O)(=O)Nc2cscn2)cc1Cl)CC(=O)O` [Compound 61, 2-((3-(5-chloro-2-(2-chloro-5-fluoro-4-(N-(thiazol-4-yl)sulfamoyl)phenoxy)phenyl)propyl)(prop-2-yn-1-yl)amino)acetic acid]: the IC50 was < 100 nM.

As for `C=CCN(CCCc1cc(Cl)ccc1Oc1cc(F)c(S(=O)(=O)Nc2nccs2)cc1Cl)CC(=O)O` [Compound 62, 2-(allyl(3-(5-chloro-2-(2-chloro-5-fluoro-4-(N-(thiazol-2-yl)sulfamoyl)phenoxy)phenyl)propyl)amino)acetic acid], the IC50 is < 100 nM.

Turning to `NC(=O)CNCCCc1cc(Cl)ccc1Oc1cc(F)c(S(=O)(=O)Nc2nccs2)cc1Cl` [Compound 63, 2-((3-(5-chloro-2-(2-chloro-5-fluoro-4-(N-(thiazol-2-yl)sulfamoyl)phenoxy)phenyl)propyl)amino)acetamide], the IC50 is < 100 nM.

Regarding `CC#CCN(CCCc1cc(Cl)ccc1Oc1cc(F)c(S(=O)(=O)Nc2nccs2)cc1Cl)CC(=O)O` [Compound 64, 2-(but-2-yn-1-yl(3-(5-chloro-2-(2-chloro-5-fluoro-4-(N-(thiazol-2-yl)sulfamoyl)phenoxy)phenyl)propyl)amino)acetic acid], the half-inhibitory concentration (IC50) is < 100 nM.
